The values below come from article PMC3334291 (Biochemistry, 2012).

Test [1] concerns the target MelBSt (melibiose permease of Salmonella typhimurium) (Salmonella enterica, UniProt P30878, L5M). To be noted: read-out: WT; 20 mM NaCl, 10 μM D2G, 100 mM KPi pH 7.5; sugar site, competitive.
In test [2] the target is MelBSt (melibiose permease of Salmonella typhimurium) (Salmonella enterica, UniProt P30878, L5M/G117A). To be noted: read-out: G117A; 20 mM NaCl, 10 μM D2G, 100 mM KPi pH 7.5; sugar site, competitive.

Take `OC[C@H]1O[C@H](OC[C@H]2OC(O)[C@H](O)[C@@H](O)[C@@H]2O)[C@H](O)[C@@H](O)[C@H]1O` (some centres unmarked) [melibiose]: the IC50 in test [1] was 3.8 mM; in test [2] it was 8.1 mM.
